# Several values for one entry are separate records, joined by “and”; a condition that tells them apart may be missing. Identical values can stand only once. Like-named read-outs stand apart in the source and are kept apart here.
# Assays:
# [1] = Absorption spectra obtained in toluene at room temperature; type: physicochemical; conditions: for redshift of the Qy band: Example 1, versus benchmark chlorin lacking the 13-substituent (Zn-11 or 11), toluene; for B/Qy intensity ratio / Log ε (M^−1cm^−1) (Qy band) / λmax (nm), B / λmax (nm), Qy: Table 1, in toluene at room temperature; for Qy band: figure legends (FIG. 1, 2, 4, 5), toluene at room temperature, normalized at the B bands
# Source text: (§1) Absorption Spectra. The spectral properties of interest in the chlorins include the position of the long-wavelength Qy transition, the intensity of the Qy transition, and the fluorescence quantum yield of the chlorin. The intensity of the Qy transition can be assessed by the measured molar absorption coefficient; however, comparisons of such values are somewhat unreliable given the experimental variability encountered upon handling small quantities of materials. A better comparison is achieved by examination of the ratio of the intensities of the B and Qy bands for a given compound (B/Qy ratio), which is determined simply by absorption spectroscopy without requiring determination of the molar absorption coefficient. For a wide variety of applications, bathochromic and hyperchromic shifts of the Qy band are desired (i.e., shifted to longer wavelength and intensified), thereby affording strong absorption in the deep-red region.
# General. ^1H NMR (400 MHz) and ^13C NMR (75 MHz) spectra were collected at room temperature in CDCl3. Absorption spectra were obtained in toluene at room temperature. Chlorins were analyzed by laser desorption mass spectrometry (LD-MS) in the absence of a matrix. Fast atom bombardment mass spectrometry (FAB-MS) data are reported for the molecule ion or protonated molecule ion. Melting points are uncorrected. All commercially available materials were used as received. All palladium-coupling reactions were carried out using standard Schlenk-line techniques.
# as §1, with “B. Absorption” for “Absorption”, “Spectroscopy.” for “Spectra.”, “increased” for “intensified), thereby affording strong absorption”, “intensity).” for “the deep-red region.”
# General. ^1H NMR (400 MHz) and ^13C NMR (75 MHz) spectra were collected at room temperature in CDCl3 unless noted otherwise. Absorption spectra were obtained in toluene at room temperature. Chlorins were analyzed by laser desorption mass spectrometry (LD-MS) in the absence of a matrix. Metalation of free base chlorins was monitored by fluorescence spectroscopy. Melting points are uncorrected. All commercially available materials were used as received.
# [2] = Fluorescence spectra and fluorescence quantum yields in toluene at room temperature; type: physicochemical; conditions: for fluorescence quantum yield (Φf): standard Zn-11 (Φf=0.065)
# Description: Fluorescence Spectroscopy. The fluorescence spectra and fluorescence quantum yields reported herein were collected in toluene at room temperature. Measurements of fluorescence quantum yield (Φf) were carried out using chlorin Zn-11 (Φf=0.065) as a standard (Strachan, J.-P. et al., J. Org. Chem. 2000, 65, 3160-3172).
# [3] = comparison values, Strachan et al.; cited from earlier work
redshift of the Qy band [1] [nm],B/Qy intensity ratio [1],Log ε (M^−1cm^−1) (Qy band) [1],"λmax (nm), B [1] [nm]","λmax (nm), Qy [1] [nm]",Qy band [1] [nm],"strong / dominant Qy(0,0) fluorescence band [2]",weak emission feature / broad weak band [2],fluorescence quantum yield (Φf) [2],SMILES,fluorescence quantum yield (Φf) [3]
27,2.9,4.75,424,635,632,around 641 nm,670-720 nm,0.24,"CC(=O)c1cc2[n]3c1=CC1=NC(=Cc4ccc([n]4[Zn]3)C(c3ccc(C)cc3)=C3C=CC(=N3)C=2c2c(C)cc(C)cc2C)C(C)(C)C1 [Zn-8, Zn(II)-13-Acetyl-17,18-dihydro-10-mesityl-18,18-dimethyl-5-p-tolylporphyrin]",
,2.3,4.67,422,661,,approximately 668 nm,~711 nm and ~744 nm,0.23,"CC(=O)c1cc2[nH]c1cc1nc(cc3ccc([nH]3)c(-c3ccc(C)cc3)c3nc(c2-c2c(C)cc(C)cc2C)C=C3)C(C)(C)C1 [compound 8, 13-Acetyl-17,18-dihydro-10-mesityl-18,18-dimethyl-5-p-tolylporphyrin]",
19,2.5,,417,660,660,,,,"Cc1ccc(-c2c3nc(c(-c4c(C)cc(C)cc4C)c4cc5c([nH]4)c(c4nc(cc6ccc2[nH]6)C(C)(C)C4)CC5=O)C=C3)cc1 [compound 10, 18,18-Dimethyl-10-mesityl-13^1-oxo-5-p-tolylphorbine]",0.29

# From patent publication US8207329B2, “Synthesis of chlorins and phorbines with enhanced red spectral features” (North Carolina State University, priority 2005, dated 2012)
